In patent US11130766B2, “Deuterated thienopiperidine derivatives, manufacturing method, and application thereof” (JIANGSU TASLY DIYI PHARMACEUTICAL CO., LTD., priority 2015, dated 2021):
Read-outs that look alike come from different tables or passages of the source. Marks after values point to notes of the source that are not given here.

Experiments:
[1] = test system: ADP induced platelet aggregation; assay: ADP induced platelet aggregation, maximum aggregation rate after administration to rats; format: in vivo, Wistar male rats; conditions: ADP induced, rats, 3 mg/kg, blood drawn 2 hours after administration
Protocol: Addition of small dose of ADP (concentration less than 0.9 μmol/L) into the platelet suspension could lead to rapid platelet aggregation, followed by quick disaggregation; if moderate dose of ADP (about 1.0 μmol/L) was added, then the second irreversible aggregation phase appeared not long after the end of the first aggregation phase and the disaggregation. The maximum aggregation rate of the irreversible aggregation phase was used to evaluate the effect of the test samples on the function of blood coagulation.
Animals: Wistar male rats, weighing 230-250 g, were purchased from Vital River Laboratory Animal Technology Co., Ltd.
Reagent: ADP, Sigma Corporation.
Test samples: 16 test samples were provided by the Tasly Group; referred to China patent application 201310428052.4 for manufacturing method of TSC-1˜4 and TSC-6˜9.
Dose of administration: the test samples were suspended with 0.25% CMC, administered 3 mg/kg weight, volume of administration: 2 mL.
2 Hours after administration, the rats were anesthetized with pentobarbital sodium, and blood was drawn from the abdominal aorta, anticoagulated with sodium citrate with a ratio of 1:9, and centrifuged to obtain the platelet-rich plasma and platelet-poor plasma, with the mixed ratio of the platelet-poor plasma to platelet-rich plasma=3:1.

esterase [2] = assay: Esterase hydrolysis rates of TSD-8 and clopidogrel bisulfate, in vitro incubation in rat whole blood; format: in vitro ADME; design: sample test results (concentration) Num. 1 / sample test results (concentration) Num. 2 / sample test results (concentration) Num. 3 / sample test results (concentration) Mean: unit not given here; conditions: rat whole blood, 37° C., 30 μg/mL
esterase [3] = conditions: rat whole blood, 37° C., 30 μg/mL
Protocol: The hydrolysis rates of formula TSD-6 and clopidogrel bisulfate in the rat whole blood were determined by employing the in vitro incubation method.
3 mL of the rat fresh whole blood was taken and placed in a glass test tube. 30 μg/mL of formula TSD-6 and clopidogrel bisulfate (prepared with saline) were added, with 3 parallel tests for each group. The test tubes were shocked at a constant temperature of 37° C., 100 μL of the mixture was taken out at fixed time points of 10 min, 20 min, 30 min, 40 min, 50 min, 60 min, 70 min, 80 min, 90 min, 100 min, 110 min, and 120 min, into which 900 μL of methanol was added to stop the reaction immediately, then 100 μL methanol/water (1:1, v/v) and 100 μL internal standard (diazepam, 100 ng/mL) were added sequentially. The mixture was centrifuged at 13000 rpm at low temperature for 10 min, the supernatant was transferred into another EP tube, and 20 μL of the supernatant was taken for sample injection.

Rat Tail Bleeding Model = conditions: SD rat, 10 mg/kg oral gavage, 4 h after administration
Protocol: genus, strain SD rat, • Provider: Slac • Weight: 250-350 g • Sex: male • Animal number: 30
Experimental Method: • The animals were allowed adapt to the environment after arrival for 1 week and fasted for 16 hours prior to the experiment. • The tail bleeding time started to be recorded 2 h after oral administration of the test compounds and 4 h after oral administration of clopidogrel. • The rats were anesthetized with pentobarbital sodium (50 mg/kg, ip) 10 min prior to the recording of the tail bleeding time, after the rat was completely anesthetized and reaching the detection time, the tail was cut at 1.3 mm from the rat tail-tip with a scissor and perpendicularly immerged into a saline at 37° C. Timing recording was not started until the blood flow appeared. • The timing recording was stopped when the bleeding time interval was longer than 20 seconds. The maximum observation time for the blood flow was set for 40 minutes. If it was longer than 40 minutes, the timing recording was stopped and the time was recorded as 40 minutes.

[4] = test system: Rat Arteriovenous Thrombus Loop Model; conditions: SD rat, 10 mg/kg oral gavage, 4 h after administration, 15 min circulation
From the text: genus, strain: SD rat, • Provider: Slac • Weight: 250-350 g • Sex: male • Animal number: 30
Apparatus and Materials • Swab, dry tampon, alcohol pad, anerdian tampon. • Surgical scissor, ophthalmic forceps, hemostatic forceps, microsurgical scissor, microsurgical forceps, artery clamps. • 3-0 surgical suture, thick PE tube (I.D.*O.D.=1.14 mm*1.63 mm, 8 cm long), think PE tube (I.D.*O.D.=0.72 mm*1.22 mm, 6 cm long). • Surgical board, binding rope, timer, precise electronic balance, weighing paper. • Syringe, normal saline.
7. Experimental Method • After arrival, the animals were let adapt to the environment for 1 week and fasted for 16 hours prior to the test. • The arteriovenous blood loop circulation was started 2 h after oral administration of the test compounds and 4 h after oral administration of clopidogrel. • The rats were anesthetized with pentobarbital sodium (50 mg/kg, ip) 15 min before the arteriovenous blood loop circulation was started. • The left external jugular vein and the right carotid artery were separated and inserted with thin PE tubes respectively. • Two PE tubes were connected with another thick PE tube with a length of 8 cm to form a circulation passage. There's a 6 cm surgical suture (3-0) in the thick PE tube. • 15 min after the circulation passage was opened, the blood flow was blocked, the filament was taken out and weighed after the blood was sucked out. The thrombus weight was obtained after subtraction of the weight of the filament itself.

Compound: COC(=O)[C@H](c1ccccc1Cl)N1CCc2sccc2C1 [clopidogrel, Clopidogrel, reference compound]
- Maximum Platelet Aggregation Rate [1]: 46.77 ± 8.28
- time at which the concentration in the whole blood was lower than the quantitative lower limit (esterase [2]): around 50 min
- sample test results (concentration) Mean (esterase [2]; 10 min): 199.50
- sample test results (concentration) Num. 1 (esterase [2]; 10 min): 232
- sample test results (concentration) Num. 3 (esterase [2]; 10 min): 167
- sample test results (concentration) Mean (esterase [2]; 20 min): 90.53
- sample test results (concentration) Num. 1 (esterase [2]; 20 min): 64.1
- sample test results (concentration) Num. 2 (esterase [2]; 20 min): 131
- sample test results (concentration) Num. 3 (esterase [2]; 20 min): 76.5
- sample test results (concentration) Mean (esterase [2]; 30 min): 34.07
- sample test results (concentration) Num. 1 (esterase [2]; 30 min): 20.6
- sample test results (concentration) Num. 2 (esterase [2]; 30 min): 53
- sample test results (concentration) Num. 3 (esterase [2]; 30 min): 28.6
- sample test results (concentration) Mean (esterase [2]; 40 min): 11.82
- sample test results (concentration) Num. 1 (esterase [2]; 40 min): 6.46
- sample test results (concentration) Num. 2 (esterase [2]; 40 min): 14.3
- sample test results (concentration) Num. 3 (esterase [2]; 40 min): 14.7
- sample test results (concentration) Mean (esterase [2]; 50 min): 0.62
- sample test results (concentration) Num. 1 (esterase [2]; 50 min): 0.479
- sample test results (concentration) Num. 2 (esterase [2]; 50 min): 1.01
- sample test results (concentration) Num. 3 (esterase [2]; 50 min): 0.359
- sample test results (concentration) Mean (esterase [2]; 60 min): 0.53
- sample test results (concentration) Num. 1 (esterase [2]; 60 min): 0.347
- sample test results (concentration) Num. 2 (esterase [2]; 60 min): 1.24
- sample test results (concentration) Num. 3 (esterase [2]; 60 min): 0
- sample test results (concentration) Mean (esterase [2]; 90 min): 0.00
- sample test results (concentration) Num. 1 (esterase [2]; 90 min): 0
- sample test results (concentration) Num. 2 (esterase [2]; 90 min): 0
- sample test results (concentration) Num. 3 (esterase [2]; 90 min): 0
- sample test results (concentration) Mean (esterase [2]; 100 min): 0.00
- sample test results (concentration) Num. 1 (esterase [2]; 100 min): 0
- sample test results (concentration) Num. 2 (esterase [2]; 100 min): 0
- sample test results (concentration) Num. 3 (esterase [2]; 100 min): 0
- sample test results (concentration) Mean (esterase [2]; 110 min): 0.00
- sample test results (concentration) Num. 1 (esterase [2]; 110 min): 0
- sample test results (concentration) Num. 2 (esterase [2]; 110 min): 0
- sample test results (concentration) Num. 3 (esterase [2]; 110 min): 0
- sample test results (concentration) Mean (esterase [2]; 120 min): 0.00
- sample test results (concentration) Num. 1 (esterase [2]; 120 min): 0
- sample test results (concentration) Num. 2 (esterase [2]; 120 min): 0
- sample test results (concentration) Num. 3 (esterase [2]; 120 min): 0
- time at which the concentration in the whole blood was lower than the quantitative lower limit (esterase [3]): around 50 min
- sample test results (concentration) Mean (esterase [3]; 10 min): 211.0
- sample test results (concentration) Num. 1 (esterase [3]; 10 min): 238
- sample test results (concentration) Num. 2 (esterase [3]; 10 min): 221
- sample test results (concentration) Num. 3 (esterase [3]; 10 min): 174
- sample test results (concentration) Mean (esterase [3]; 20 min): 89.6
- sample test results (concentration) Num. 1 (esterase [3]; 20 min): 66.2
- sample test results (concentration) Num. 2 (esterase [3]; 20 min): 128
- sample test results (concentration) Num. 3 (esterase [3]; 20 min): 74.7
- sample test results (concentration) Mean (esterase [3]; 30 min): 35.1
- sample test results (concentration) Num. 1 (esterase [3]; 30 min): 24.1
- sample test results (concentration) Num. 2 (esterase [3]; 30 min): 57.2
- sample test results (concentration) Num. 3 (esterase [3]; 30 min): 24.1
- sample test results (concentration) Mean (esterase [3]; 40 min): 11.2
- sample test results (concentration) Num. 1 (esterase [3]; 40 min): 6.27
- sample test results (concentration) Num. 2 (esterase [3]; 40 min): 15.1
- sample test results (concentration) Num. 3 (esterase [3]; 40 min): 19.3
- sample test results (concentration) Mean (esterase [3]; 50 min): 0.70
- sample test results (concentration) Num. 1 (esterase [3]; 50 min): 0.449
- sample test results (concentration) Num. 2 (esterase [3]; 50 min): 1.12
- sample test results (concentration) Num. 3 (esterase [3]; 50 min): 0.518
- sample test results (concentration) Mean (esterase [3]; 60 min): 0.62
- sample test results (concentration) Num. 1 (esterase [3]; 60 min): 0.417
- sample test results (concentration) Num. 2 (esterase [3]; 60 min): 1.45
- sample test results (concentration) Num. 3 (esterase [3]; 60 min): 0
- sample test results (concentration) Mean (esterase [3]; 90 min): 0
- sample test results (concentration) Num. 1 (esterase [3]; 90 min): 0
- sample test results (concentration) Num. 2 (esterase [3]; 90 min): 0
- sample test results (concentration) Num. 3 (esterase [3]; 90 min): 0
- sample test results (concentration) Mean (esterase [3]; 100 min): 0
- sample test results (concentration) Num. 1 (esterase [3]; 100 min): 0
- sample test results (concentration) Num. 2 (esterase [3]; 100 min): 0
- sample test results (concentration) Num. 3 (esterase [3]; 100 min): 0
- sample test results (concentration) Mean (esterase [3]; 110 min): 0
- sample test results (concentration) Num. 1 (esterase [3]; 110 min): 0
- sample test results (concentration) Num. 2 (esterase [3]; 110 min): 0
- sample test results (concentration) Num. 3 (esterase [3]; 110 min): 0
- sample test results (concentration) Mean (esterase [3]; 120 min): 0
- sample test results (concentration) Num. 1 (esterase [3]; 120 min): 0
- sample test results (concentration) Num. 2 (esterase [3]; 120 min): 0
- sample test results (concentration) Num. 3 (esterase [3]; 120 min): 0
- Tail Bleeding Time (s) (Rat Tail Bleeding Model): 1896*** s
- Thrombus (mg) [4]: 20.1** mg
